Assay [1] relates to murine brown adipocytes. Nature of the assay: [18F]FDG uptake in brown adipocytes (brown adipocyte activation). It is filed as cell-based. As to conditions: 30 min pre-treatment, baseline (vehicle) = 100% uptake/well, mean ± SD. The method, then: (§1) Cells were maintained under standard conditions in a humidified incubator (37°C, 5% CO2). CHO-K1 cells expressing the human adrenergic beta-3 receptor (CHO-K1-ADRB3) were purchased from PerkinElmer (ValiScreen® ES-035-C). CHO-K1-ADRB3 were grown using Ham's F12 (Nut Mix) supplemented with 10% FCS, 2 mM L-glutamine, penicillin (100 Units/mL), streptomycin (100 μg/mL), and 0.4 mg/mL geneticin. CHO-K1 cells were a generous gift from Prof. Karl Norbert Klotz (University Würzburg, Germany) and cultured likewise without selection antibiotics. Immortalized murine brown pre-adipocytes were provided by the Department of Medicine III (Medical University of Vienna, Austria) and cultured in high glucose Dulbecco's Modified Eagle's Medium (DMEM) supplemented with 10% FBS, 1 mM pyruvate, penicillin (100 Units/mL) and streptomycin (100 μg/mL). When cells were confluent, differentiation to brown adipocytes was induced for 48 h using 1.72 μM insulin (human recombinant), 1 nM thyroid hormone (T3), 0.5 mM 3-isobutyl-1-methylxanthine (IBMX), 125 nM indomethacin, and 1 μM dexamethasone. After induction, the medium was changed to post-differentiation medium (high glucose DMEM) supplemented with 10% FBS, 1 mM pyruvate, penicillin (100 Units/mL), streptomycin (100 μg/mL), 1.72 μM insulin, and 1 nM T3. The post-differentiation medium was replenished every second day. Brown adipocytes were used for experimental investigations 4–6 days after induction. Oil Red O staining was performed according to the manufacturer's instructions. Counterstaining was performed using haematoxylin.
Brown pre-adipocytes were seeded, grown to confluence and differentiated in 6-well plates as described in section General. Cell starving was performed for 1 h using unsupplemented, glucose-free DMEM. […] [^18F]FDG uptake was performed for 50 min at 37°C (humidified atmosphere, 5% CO2). Supernatant was taken off, cells were washed with ice-cold PBS and finally trypsinized. Radioactive cell fractions were gamma counted (2480 Wizard^2, PerkinElmer) and normalized to percentage uptake per well. [^18F]FDG uptake under baseline conditions refers to 100% uptake. Three independent experiments were performed in triplicates. Statistical analysis was performed using an unpaired, two-tailed t-test.

Assay [2] relates to murine brown adipocytes. In words: Specific [11C]SNAP-7941 binding to brown adipocytes (competition). It is filed as cell-based. To be noted: 2 μM unlabeled compound; for [11C]SNAP-7941 binding per well referring to baseline: 30 min pre-treatment, baseline (vehicle) = 100% binding/well, mean ± SD. The method, then: as §1
Brown pre-adipocytes were seeded, grown to confluence and differentiated in six-well plates as described above. Thirty minutes prior to the experiment, maintenance medium (cf. 2.1) was discarded and replaced with respective serum- and additive-free medium to avoid plasma protein binding of the PET-tracer. Cell starving, as performed for [^18F]FDG uptake measurements, was not indicated for [^11C]SNAP-7941 binding experiments. […] Baseline was determined using DMSO or ethanol, respectively. Sample processing, data analysis and statistical testing were performed as described in [^18F]FDG Uptake Experiments: Effects of MCHR1 Ligands on Brown Adipocyte Activation.

In assay [3] the target is T1, human adrenergic beta-3 receptor (ADRB3) (Homo sapiens, UniProt P13945).
T1 construct: host or cells: CHO-K1
Nature of the assay: Competitive binding assay, CHO-K1-ADRB3 cell membranes, [3H]CGP-12177 radioligand. As to conditions: for Ki: CHO-K1-ADRB3 membranes, 5 nM [3H]CGP-12177, 90 min 27°C, read-out: Ki ADRB3 experimental; for ADRB3/ MCHR1 (ratio of Ki values): selectivity toward MCHR1, ADRB3 Ki measured, MCHR1 Ki from ref [28]. The method, then: CHO-K1-ADRB3 cell membranes were prepared from 175 cm^2 cell culture flasks, when 80% confluence was reached. All procedures were performed at 4°C. Cells were scraped off using ice-cold lysis buffer (10 mM Tris-HCl pH 7.4, 1 mM EDTA) and protease inhibitor cocktail was added according to the manufacturer's instructions (Sigma-Aldrich, St. Louis, USA). The cell suspension was homogenized using cannulas (29 G) and centrifuged for 10 min at 1,000 × g. The obtained supernatant was centrifuged for 30 min at 100,000 × g. Subsequently, the pellet was suspended using 50 mM Tris-HCl pH 7.4 and aliquoted. Aliquots were shock-frozen in liquid nitrogen and stored at −80°C until usage. Protein concentration of the cell membrane suspension was determined using BCA Protein Assay Kit (Thermo Scientific, Waltham, USA).
All stated concentrations refer to the final assay volume of 500 μL buffer (25 mM HEPES pH 7.4, 1 mM EDTA, 0.5% BSA). Competitive binding assays were performed using 13.6 ng/μL ADRB3 expressing CHO-K1 cell membrane suspension (cf. 2.3) and 5 nM [^3H]CGP-12177 as the respective radioligand. […] Nonspecific binding was determined using 10 μM carazolol. Total binding was determined in the presence of 1% respective solvent. Incubation was performed for 90 min at 27°C. Filtration through GF/B filters (Whatman®, presoaked in 0.05% PEI) was performed using a cell harvester (Brandel®, Gaithersburg, MD, USA) and was followed by two washing steps using ice-cold wash buffer (10 mM HEPES, 500 mM NaCl, pH 7.4). Filter pieces containing receptor-bound radioactivity were shaken for 30 min in scintillation cocktail (Ultima Gold™, PerkinElmer, Waltham, USA) before liquid scintillation counting (Hidex 300 SL, Turku, Finland). IC50 fitted binding curves were generated using the GraphPad Software 5.0 (La Jolla, CA, USA) using nonlinear regression.

The target in assay [4] is MCHR1. Details: method as in PMID 28808288. To be noted: previously described; ref [28]; cited from earlier work.
For assay [5], the target named is T2, CHO-K1-ADRB3 cells (Homo sapiens, UniProt P13945).
T2 construct: host or cells: CHO-K1
Nature of the assay: Real-time kinetic displacement of [125I]Iodocyanopindolol binding (LigandTracer). The class given is cell-based. As to conditions: 20 μM non-radioactive compound applied after 60 min association phase. The method, then:
2.5 × 10^5 cells (CHO-K1, CHO-K1-ADRB3) per cell culture dish were seeded 2 days prior to the experiment and incubated in an inclined position to allow an adherent cell pole at one side of the cell dish. Cell dish preparation was performed as previously described ([32], [33]). Real-time kinetic radioligand binding measurements were performed using a dedicated device for low energy gamma radiation (LigandTracer® Gray Technology, Ridgeview, Sweden). The assay protocol compromised consecutive radioactivity measurements of the target region (cell pole) and of the opposite pole of the petri dish, where no cells were seeded (background signal). Radioactivity was counted in each region for 3 s with a delay of 2 s over the time course of the experiment. Raw counts per second (cps) of the target region were corrected for background signal and for radioactive decay. Displacement of [^125I]Iodocyanopindolol binding was conducted after 1 h association phase of radioligand binding by consecutively applying rising concentrations of SNAP-7941 and FE@SNAP. The same volume of ethanol was added as vehicle control. Experiments were performed on at least three different days.

The target of assay [6] is ADRB3. Details: method as in PMID 14730417, PMID 8719421, PMID 7903415, PMID 2570461. To be noted: literature values for standard compounds; ref [43], [45]–[47]; read-out: Ki ADRB3 reference; cited from earlier work.
The target in assay [7] is ADRB3. Details: method as in PMID 20590599. To be noted: assumed for Ki calculation; ref [31]; cited from earlier work.

The structures appear in SMILES notation. Read-outs that look alike come from different tables or passages of the source.

T1 sequence (P13945 whole entry): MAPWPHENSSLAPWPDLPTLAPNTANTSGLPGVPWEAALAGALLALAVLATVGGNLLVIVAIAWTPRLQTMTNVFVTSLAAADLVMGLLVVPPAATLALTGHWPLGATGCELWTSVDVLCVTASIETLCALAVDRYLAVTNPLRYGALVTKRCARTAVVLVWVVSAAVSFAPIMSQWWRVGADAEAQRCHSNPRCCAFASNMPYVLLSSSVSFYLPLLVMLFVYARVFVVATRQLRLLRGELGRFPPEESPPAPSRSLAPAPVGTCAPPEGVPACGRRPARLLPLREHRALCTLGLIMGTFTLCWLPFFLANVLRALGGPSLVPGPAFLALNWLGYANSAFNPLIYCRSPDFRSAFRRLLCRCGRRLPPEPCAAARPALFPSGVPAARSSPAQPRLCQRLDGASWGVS
T2 sequence (P13945 whole entry): as above

`C[C@H](Cc1ccc2c(c1)OC(C(=O)[O-])(C(=O)[O-])O2)NC[C@H](O)c1cccc(Cl)c1.[Na+].[Na+]` [CL 316,243, reference compound]: in assay [1] (2 μM compound), the “[18F]FDG uptake referring to baseline” value is recorded as 137.7 ± 12.2%. In assay [2], the “[11C]SNAP-7941 binding per well referring to baseline” value is 91.1 ± 3.6%.
For the compound `COCC1=C(C(=O)OC)[C@H](c2ccc(F)c(F)c2)N(C(=O)NCCCN2CCC(c3cccc(NC(C)=O)c3)CC2)C(=O)N1` [SNAP-7941], in assay [1] (20 μM compound), the “[18F]FDG uptake referring to baseline” value is given as 63.24 ± 2.6%. The values for the Ki in assay [3] (n = 3 in triplicates) and in assay [4] were 14500 ± 300 nM and 3.91 ± 0.74 nM, respectively. In assay [3], the “ADRB3/ MCHR1 (ratio of Ki values)” value is ~3,708. The “[11C]SNAP-7941 binding per well referring to baseline” value in assay [2] was 77.1 ± 5.0%. Moreover, the “Reduction of [11C]SNAP-7941 binding” value in assay [2] (versus baseline) is 22.9 ± 5.0%. Besides, the “Effect on [125I]Iodocyanopindolol binding to CHO-K1-ADRB3 cells” value in assay [5] was “did not affect binding”.
In the case of `CC(C)NC[C@H](O)COc1cccc2ccccc12.Cl` [(S)-propranolol, (S)-propranolol hydrochloride], the “[18F]FDG uptake referring to baseline” value in assay [1] (2 μM compound) is reported as “did not alter”. Besides, the “[11C]SNAP-7941 binding per well referring to baseline” value in assay [2] was 95.8 ± 8.6%; in assay [2] (listed as propranolol), “did not alter”.
For the compound `COCC1=C(C(=O)OCCF)C(c2ccc(F)c(F)c2)N(C(=O)NCCCN2CCC(c3cccc(NC(C)=O)c3)CC2)C(=O)N1` (centres unmarked) [FE@SNAP], the “[18F]FDG uptake referring to baseline” value in assay [1] (20 μM compound) worked out at 73.03 ± 13.6%. Further, the Ki in assay [3] (n = 3 in triplicates) is 65100 ± 2900 nM; in assay [4], 9.98 ± 1.12 nM. The “ADRB3/ MCHR1 (ratio of Ki values)” value in assay [3] is reported as ~6,523. The “Effect on [125I]Iodocyanopindolol binding to CHO-K1-ADRB3 cells” value in assay [5] was “did not affect binding”.
Turning to `CC(C)NCC(O)COc1cccc2[nH]c3ccccc3c12` (centres unmarked) [carazolol, reference compound], the Ki in assay [6] was 2 nM; in assay [3] (three independent experiments in triplicates), 2 ± 0.3 nM.
`CC(C)(C)NCC(O)COc1cccc2[nH]c(=O)[nH]c12` (stereo not drawn) [[^3H]CGP-12177, 5,7-[^3H](-)CGP-12177]: the Kd in assay [7] is 109 nM.

Values taken from PMC6581027, “In vitro Radiopharmaceutical Evidence for MCHR1 Binding Sites in Murine Brown Adipocytes” (Frontiers in Endocrinology, 2019).
